Results taken from US20260217656A1, “Compounds Affecting KRAS” (UNIVERSITAT DE BARCELONA, priority 2022, published 2026).
Entries after “also recorded” stand apart in the source; their conditions may differ.

How the values were obtained:
Type in all cases: cell-based, human
[1] = test system: ERK and AKT in DLD-1-KO cells; assay: Western blot of AKT and ERK activation in serum-starved DLD-1-KO cells; details: DLD-1-KO serum-starved cells, 100 μM
Text: DLD-1 (KRASWT/G13D) (clone V15, #HD PAR-086) colorectal adenocarcinoma cell line and DLD-1 knockout of mutant KRAS allele, DLD-1 KO (KRASWT/−) (clone DWT7, #HD105-002), were obtained from Horizon Discovery Ltd. (Cambridge, UK). hTERT-RPE (KRASWT/WT) immortalized retinal pigment epithelial human cell line was obtained from the […] (ATCC). DLD-1 KO cells stably expressing HA-KRAS G12V were previously generated in our laboratory (Cabot et al., 2021). All cells were grown in DMEM-HAM s F12 (1:1) supplemented with 10% foetal bovine serum (Biological Industries, Israel), penicillin, streptomycin, and nonessential amino acids. […]
For analysis of RAS signalling, cells were lysed in a buffer containing 67 mM Tris-HCl pH 6.8 and 2% SDS and then the samples were heated at 97° C. for 15 minutes. Protein concentration of the lysates was assessed using the Lowry method. […]
Comparison of Ras signaling between DLD-1, DLD-1-KO and hTERT-RPE cells treated with P14B since important differences were observed between the viability of cells treated with P14B depending on their expression or lack of expression of oncogenic KRAS, we further studied whether these discrepancies were reflected also in KRAS downstream signaling. Serum-starved cells (0.1% FCS) were treated with P14B (100 μM) and activation of AKT and ERK was evaluated by WB. […]

[2] = test system: ERK and AKT in DLD-1 cells stably expressing HA-KRAS-G12V; assay: Western blot of AKT and ERK phosphorylation in DLD-1 cells stably expressing HA-KRAS-G12V; details: serum-starved DLD-1 cells stably expressing HA-KRAS-G12V
Text: (§1) DLD-1 (KRASWT/G13D) (clone V15, #HD PAR-086) colorectal adenocarcinoma cell line and DLD-1 knockout of mutant KRAS allele, DLD-1 KO (KRASWT/−) (clone DWT7, #HD105-002), were obtained from Horizon Discovery Ltd. (Cambridge, UK). hTERT-RPE (KRASWT/WT) immortalized retinal pigment epithelial human cell line was obtained from the […] (ATCC). DLD-1 KO cells stably expressing HA-KRAS G12V were previously generated in our laboratory (Cabot et al., 2021). All cells were grown in DMEM-HAM s F12 (1:1) supplemented with 10% foetal bovine serum (Biological Industries, Israel), penicillin, streptomycin, and nonessential amino acids. Cells were tested once per month for mycoplasma contamination.
Cells were seeded in a media containing 10% FBS for 24 hours and then they were serum starved (0.1% FBS) for the next 24 hours. Afterwards, they were incubated with the different compounds during the times specified in each figure. When indicated, also in order to activate downstream KRAS cell signalling, treatment for 10 minutes with EGF (50 ng/mL) (Sigma-Aldrich) was performed. […]
We assessed the possibility that P14B favors RAS-effector binding and consequently increases downstream RAS signaling. […] The interaction was analyzed after 10 min of P14B treatment since P—C-RAF and P-MEK were observed after 15 min (FIG. 3C). […]

DLD-1 cells = assay: MTS cell viability assay, DLD-1
Text: as §1
(§2) MTS viability assay (CellTiter 96® Aqueous One Solution Cell Proliferation Assay, Promega G3580) was assessed following the company conditions. The absorbance of each well was measured with a multimode plate reader (Spark, Tecan) at 490 nm. The percentage of cell viability was calculated by dividing the absorbance of each well by the average absorbance of the control wells.
Since both inhibition and sustained activation of RAS signaling are related to a decrease in cell survival, we analyzed the viability of the CRC cell lines DLD-1 (expressing oncogenic KRAS) and DLD-1-KO (oncogenic KRAS allele deleted), and the non-transformed cell line hTERT-RPE. […] At the IC50 of approximately 80 μM for DLD-1 cells, the viability of DLD-1-KO and of non-transformed cells was not affected (FIG. 6A). […] The effect of P14B in DLD-1 cells cultured in 3D conditions was also determined. […] Consequently, we conclude that P14B selectively reduces the viability of CRC cells expressing oncogenic KRAS, causing minor effects if these cells have been knocked out for oncogenic KRAS or in non-transformed cells. Thereby, P14B might be considered as an inducer of apoptosis in CRC with oncogenic KRAS.
[…] Each point corresponds to n=6. The concentration (μM) indicated in the graph is the one in the final 100 μL volume). **** p<0.0001 (t-student test).

DLD-1-KO cells = assay: MTS cell viability assay, DLD-1-KO; details: at approximately 80 μM
Text: as §1
as §2, with “10,000 cells in 50 µL of 10% FBS-containing medium, were cultured for 24 hours and then treated with the compounds (50 μL final volume) for 48 h hours in each well of a 96-well plate (100 μL final volume). MTS” for “MTS”, “wells. […]” for “wells.”

hTERT-RPE cells = assay: Cleaved caspase-3 Western blot, hTERT-RPE; details: hTERT-RPE cells treated 34 h or 48 h
Method: FIG. 6C is a blot showing extracts of DLD-1, DLD-1-KO and RPE cells at 34 h. and 48 h. DLD-1 cells treated with P14B for 36 h and 48 h were lysed and the expression of the apoptosis marker cleaved caspase-3 was analyzed by Western blot. Cells treated with the apoptosis inducer palmitic acid (PA) were used as a positive control.
Proteins were resolved by SDS-PAGE, transferred onto PVDF membranes (Immobilon-P, Millipore) and Western blot was performed as previously described (Cabot et al, Oncogene 2021). […]
Since both inhibition and sustained activation of RAS signaling are related to a decrease in cell survival, we analyzed the viability of the CRC cell lines DLD-1 (expressing oncogenic KRAS) and DLD-1-KO (oncogenic KRAS allele deleted), and the non-transformed cell line hTERT-RPE. […] The effect of P14B in DLD-1 cells cultured in 3D conditions was also determined. […]

- IC50 (DLD-1 cells; DLD-1 cells, dose-response 0 to 100 μM, 24 hours): ~80 µM
SMILES: COc1ccc(C(c2c(C)n[nH]c2O)c2c(C)n[nH]c2O)cc1Oc1ccc([N+](=O)[O-])cc1 [Example P14B]
- AKT and ERK activation [1]: AKT and ERK activation by P14B was also observed
- levels of ERK phosphorylation compared with 10% FBS treatment [1]: significantly lower
- phosphorylation of AKT and ERK [2]: induced phosphorylation of AKT and ERK
- maxim cell viability reduction compared with Erlotinib (DLD-1 cells; DLD-1, 5000 cells, 48 h treatment): significantly higher
- cell viability (DLD-1 cells; DLD-1 cells, specifically at 75 μM and 100 μM): significantly reduced the cell viability; also recorded: decreases the viability
- cell viability (DLD-1-KO cells): not affected
- cleaved caspase-3 expression (hTERT-RPE cells): undetectable
